Measurements taken from patent US20230309565A1 (priority 2022, published 2023).
Converted amounts (≈) assume the structure as drawn.

Columns and labels:
[1] = system: Liberibacter crescens BT-1; test: microbe, parasite or virus in culture; format: cell-based; conditions: for inhibition of growth of L. crescens BT1: BM7 medium, 28° C.
[2] = format: physicochemical; conditions: room temperature; 40-h culture of 0617-T307 in YME media
[3] = system: Candidatus Liberibacter asiaticus (CLas); format: in vivo, Duncan grapefruit
CsPR1 = format: in vivo, citrus; conditions: foliar spray 10 ppm and 20 ppm; midribs at 0d, 2d, 2w; relative to CsUbi
CsPR2 = format: in vivo, citrus; conditions: foliar spray 10 ppm and 20 ppm; midribs at 0d, 2d, 2w; relative to CsUbi
[4] = methanol and chloroform

Row | Compound | inhibition of growth of L. crescens ([1]; 1 mg/L) | inhibition of growth of L. crescens ([1]; 2.5 mg/L, 16 days) | inhibition of growth of L. crescens BT1 ([1]; 10 mg/L) | inhibition of growth of L. crescens BT1 ([1]; 20 mg/L) | inhibition of growth of L. crescens BT1 ([1]; 40 mg/L) | MIC ([1]; Liberibacter crescens, BT1, read-out: minimal inhibitory concentration (MIC)) [µg/mL] | present and stable in the culture [2] | suppression of CLas ([3]; 10 mg/L sprayed on leaves of citrus Huanglongbing positive trees) | CLas titer in citrus leaves ([3]; RAA 10 mg/L foliar spray, HLB-positive Duncan grapefruit, untreated control 7.4×10^5) | expression of CsPR1 (CsPR1) | expression of CsPR2 (CsPR2) | solubility [4]
1 | CSC1=C(C)C(=O)C(=O)NC1=O [RejuAgro A] | partial inhibition of growth | inhibition of growth | inhibition of growth | inhibition of growth | inhibition of growth | 2.5 (≈ 13.5 µM) | at least 4 weeks | effectively suppress | 2.4×10^5 genome equivalent/g tissue DNA | triggered the expressions | triggered the expressions | can be dissolved in methanol and chloroform
2 | [H]/N=C(/N)N[C@H]1[C@H](O)[C@@H](O)[C@H](O[C@@H]2O[C@@H](C)[C@](O)(C=O)[C@H]2O[C@@H]2O[C@@H](CO)[C@H](O)[C@@H](O)[C@@H]2NC)[C@@H](N/C(N)=N\[H])[C@@H]1O [streptomycin, reference compound] |  | comparable |  |  |  |  |  |  |  |  |  | 
